Measured values: US20090076067A1, “PHARMACEUTICAL COMPOSITION COMPRISING AZARHODACYANINE COMPOUND AS ACTIVE INGREDIENT” (priority 2005, published 2009)
Like-named read-outs stand apart in the source and are kept apart here.

Tests used:
Format in all cases: cell-based
[1] = Rat L6 cell proliferation inhibition test; settings: read-out: EC50 cytotoxicity L6; for EC50 at 72 h: L6 cells (rat skeletal myoblasts), Table 1, Alamar Blue
Protocol: Rat-derived L6 cells (rat skeletal myoblast cell) were used for this test. […] The sample was cultured under CO2 concentration 5% and temperature 37° C. Either the composition of the invention or control was dissolved into DMSO, to prepare test solutions having predefined concentration.
The samples were precultured until logarithmic growth phase was reached. Then the culture was transferred to each well in a 96-well culture plate, and either test solution containing test compound at predefined concentration or DSMO without compound was added. The test solution was duplicated.
The plate was cultured in an incubator for 72 hours, to examine proliferation inhibition activity. The activity was examined as follows. Alamar Blue water solution 10 μL was added to each well, and culture was continued for 2 hours. Next, the culture plate was mounted on a fluorescence microplate reader (Spectramax Gemeni XS; Molecular Devices Corporation, U.S.), and irradiated with excitation wavelength 536 nm to determine fluorescence at 588 nm. The survival rate of L6 cells in the test solution sample and control sample was calculated.
Proliferation inhibition rate(%)={(C−A)/(B−A)}×100
A: Initial cell count B: Cell count in control after 3 days C: Cell count in test solution after 3 days

[2] = test system: Leishmania donovani (MHOM/ET/67/L82 strain); assay: Leishmania protozoa proliferation inhibition screening test; settings: for Selective toxicity: EC50 rat L6 cells / EC50 leishmania protozoa; for EC50: Leishmania donovani, read-out: EC50 Leishmania donovani
Protocol: In this experiment, Leishmania donovani (MHOM/ET/67/L82 strain) was used. The protozoa were successively cultured in Syrian Golden hamsters to obtain amastigote. The medium used in the experiment was SM medium having heat-treated fetal bovine serum 10% added, and pH prepared to 5.4. The culture was conducted under CO2 concentration 5% and temperature 37° C.
Either the compound of the invention or a positive control (miltefosine) was dissolved into DMSO to prepare test solution having predefined concentration. To each well of a 96-well culture plate, medium containing predetermined number of protozoa was added and the culture was pre-treated. The concentration of amastigote was determined by CASY cell analyze system (Scharfe GMBH Co., Germany). Subsequently, either test solution containing compound of the invention in predefined concentration or DMSO without compound was added. The test solution was duplicated.
The plate was cultured in an incubator for 72 hours, and the proliferation inhibition activity was examined. The activity was determined as follows. To each well, 10 μL Alamar blue aqueous solution was added, then cultured again for 2 hours. Then the culture plate was mounted on a fluorescence microplate reader (Spectramax Gemeni XS; Molecular Devices Corporation, U.S), and irradiated 536 nm excitation wavelength to determine […] at 588 nm. The leishmania infection rate of the sample containing the test compound and that of the control sample was calculated.
(§1) Using the protozoa infection rate thus obtained, the proliferation inhibition rate was calculated according to the following equation to determine 50% proliferation inhibition concentration (EC50).
(§2) Proliferation inhibition rate(%)={1−(b−a)/(c−a)}×100
a: initial infection rate b: infection rate of test compound solution c: infection rate of the control

[3] = test system: Trypanosoma cruzi (Tulahuen C2C4 strain); assay: American trypanosoma protozoa proliferation inhibition screening test; settings: for Selective toxicity: EC50 rat L6 cells / EC50 American trypanosoma protozoa; for EC50: Trypanosoma cruzi, read-out: EC50 Trypanosoma cruzi
Protocol: In this experiment, amastigote and trypomastigote of Trypanosoma cruzi (Tulahuen C2C4 strain) infected to rat L6 cells were used. The medium used in the experiment was prepared as follows: to RPMI 1640 medium containing L6 cells, L-glutamine (200 mM) and fetal bovine serum was added to achieve concentration of 1% and 10%, respectively. The culture was conducted under CO2 concentration 5% and temperature 37° C.
Either the compound of the invention or a positive control (benznidazole) was dissolved into DMSO to prepare test solution having predefined concentration. To each well in a 96-well culture plate, medium containing 5×10^3 protozoa was added and precultured for 48 hours. After replacing the medium, either the test solution containing compound of the invention in predefined concentration or DMSO without compound was added. The test solution was duplicated.
The plate was cultured in an incubator for 96 hours, and the proliferation inhibition activity was examined. The activity was determined as follows. To each well, 50 μL CPRG/Nonidet was added, then left for 2 to 6 hours. Then the culture plate was mounted on an absorption microplate reader to determine absorption at 540 nm. The trypanosoma infection rate of the sample containing the test compound and that of the control sample was calculated.
as §1, §2
a: initial infection rate b: infection rate of the test compound solution c: infection rate of the control

[4] = amastigote, 72 hours, Alamar blue
[5] = Tulahuen C2C4 strain in rat L6 cells, 96 hours, CPRG/Nonidet

Row | Structure (SMILES) | EC50 at 72 h [1] | Selective toxicity [2] | EC50 [2, 4] | Selective toxicity [3] | EC50 [3, 5] | EC50 Trypanosoma cruzi [3, 5] | EC50 Leishmania donovani [2, 4] | further results
1 | CCN1C(=O)/C(=C2\Sc3ccccc3N2C)S/C1=N\c1sc2cc(Cl)ccc2[n+]1C [Compound A-1] | 37.9 µg/mL | 299 | 0.127 µg/mL | – | – | – | – | –
2 | CCN1C(=O)/C(=C2\C=Cc3ccccc3N2C)S/C1=N\c1sc2cc(Cl)ccc2[n+]1C [Compound A-2] | 5.5 µg/mL | 2800 | 0.002 µg/mL | 18 | 0.31 µg/mL | – | – | –
3 | CCN1C(=O)/C(=c2/s/c(=C3/C=CC=CN3C)c(=O)n2CC)S/C1=N\c1sc2cc(Cl)ccc2[n+]1C [Compound B-2] | 27 µg/mL | – | 0.249 µg/mL | – | – | – | – | –
4 | CCN1C(=O)/C(=c2/s/c(=C3/SCCN3C)c(=O)n2CC)S/C1=N\c1sc2cc(Cl)ccc2[n+]1C [Compound B-12] | 6.9 µg/mL | 41 | 0.167 µg/mL | 7 | 0.98 µg/mL | – | – | –
5 | CCN1C(=O)/C(=c2/s/c(=C3/C=CC=CN3C)c(=O)n2CC)S/C1=N\c1sc2cc(OC)ccc2[n+]1C [Compound B-28] | – | – | – | – | – | 0.314 µg/mL | 0.037 µg/mL | –
6 | CCN1C(=O)/C(=c2/s/c(=C3/SCCN3C)c(=O)n2CC)S/C1=N\c1sc2cc(OC)ccc2[n+]1C [Compound B-29] | – | – | – | – | – | 0.091 µg/mL | >0.04 µg/mL | –
7 | CCN1C(=O)/C(=c2/s/c(=C3/C=CC=CN3C)c(=O)n2CC)S/C1=N\c1sc2ccccc2[n+]1C [Compound B-30] | – | – | – | – | – | 0.74 µg/mL | 0.11 µg/mL | –
8 | CCN1C(=O)/C(=c2/s/c(=C3/SCCN3C)c(=O)n2CC)S/C1=N\c1sc2cc(F)ccc2[n+]1C [Compound B-33] | – | – | – | – | – | 0.66 µg/mL | 0.2015 µg/mL | –
9 | CCn1c(=O)/c(=C2\SCCN2C)s/c1=C1\S/C(=N\c2sc3cc(Cl)ccc3[n+]2C)N(C(C)C)C1=O [Compound B-37] | 1.44 µg/mL | – | – | 3 | 0.479 µg/mL | – | – | –
10 | CN1/C(=c2\s/c(=C\c3cccc[n+]3CCC(=O)O)n(CC3CO3)c2=O)Sc2ccccc21 (stereo not drawn) [Compound S-3, reference compound] | – | >170 | – | – | – | – | – | EC50 ([1]; Table 1, rat L6 cells, 72 hours, Alamar Blue): > 90 µg/mL; EC50 ([3]; TULAHUEN, L6, 96 h): > 30 µg/mL; EC50 ([2]; 72 h): 0.53 µg/mL
